Reference: patent US9024012B2, “Methods to treat mixtures of glycosides to obtain one or more of these glycosides in more pure form” (Cargill, Incorporated, priority 2010, dated 2015)

Columns and labels:
[1] = type: physicochemical
Experimental: Without wishing to be bound, it is believed that separation is more favored at higher temperatures at least in part due to factors including conformational changes as well as solubility differences that are a function of temperature. At room temperature, the solubility of Reb B in a 94 weight percent ethanol solution saturated with Reb A is about 0.3 g per 100 g of solvent, and the solubility of Reb D is about 0.01 g per 100 g. At 100° C., concentrations of Reb D as high as 0.2 g/100 g are observed, and concentrations of Reb B as high as 0.5 g/100 g are observed. The solubility of Reb A in 94 wt % ethanol varies to a much smaller extent.

[2] = relative to sucrose; background statement; cited from earlier work

Row | Compound | concentrations observed in solution [1] | solubility [1] | sweetness, times the sweetness of sucrose [2]
1 | C=C1C[C@@]23CC[C@H]4[C@@](C)(CCC[C@@]4(C)C(=O)O[C@@H]4O[C@H](CO)[C@@H](O)[C@H](O)[C@H]4O[C@@H]4O[C@H](CO)[C@@H](O)[C@H](O)[C@H]4O)[C@@H]2CC[C@]1(O[C@@H]1O[C@H](CO)[C@@H](O)[C@H](O[C@@H]2O[C@H](CO)[C@@H](O)[C@H](O)[C@H]2O)[C@H]1O[C@@H]1O[C@H](CO)[C@@H](O)[C@H](O)[C@H]1O)C3 [Reb D, rebaudioside D] | ≤ 0.2 g/100 g | about 0.01 g per 100 g of solvent | 
2 | C=C1C[C@@]23CC[C@H]4[C@@](C)(CCC[C@@]4(C)C(=O)O[C@@H]4O[C@H](CO)[C@@H](O)[C@H](O)[C@H]4O)[C@@H]2CC[C@]1(O[C@@H]1O[C@H](CO)[C@@H](O)[C@H](O[C@@H]2O[C@H](CO)[C@@H](O)[C@H](O)[C@H]2O)[C@H]1O[C@@H]1O[C@H](CO)[C@@H](O)[C@H](O)[C@H]1O)C3 [Rebaudioside A, rebaudioside A] |  |  | 250-450 times
3 | rebaudioside B [Reb B] | ≤ 0.5 g/100 g | about 0.3 g per 100 g of solvent | 
